The subject of assay [1] is VEGF-stimulated HUVEC proliferation (Human Umbilical Vein Endothelial cells). The assay can be described thus: HUVEC Proliferation Assay. The settings on record: VEGF 50 ng/mL, 72 h, CyQuant fluorescent dye, read-out: inhibited VEGF-stimulated HUVEC proliferation at a level. In kind it is cell-based. How it is done: Human Umbilical Vein Endothelial cells are purchased from Clonetics, Inc., as cryopreserved cells harvested from a pool of donors. These cells, at passage 1, are thawed and expanded in EBM-2 complete medium, until passage 2 or 3. The cells are trypsinized, washed in DMEM+10% FBS+antibiotics, and spun at 1000 rpm for 10 min. Prior to centrifugation of the cells, a small amount is collected for a cell count. After centrifugation, the medium is discarded, and the cells are resuspended in the appropriate volume of DMEM+10% FBS+antibiotics to achieve a concentration of 3×10^5 cells/mL. Another cell count is performed to confirm the cell concentration. The cells are diluted to 3×10^4 cells/mL in DMEM+10% FBS+antibiotics, and 100 μL of cells are added to a 96-well plate. The cells are incubated at 37° C. for 22 h.
Prior to the completion of the incubation period, compound dilutions are prepared. Five-point, five-fold serial dilutions are prepared in DMSO, at concentrations 400-fold greater than the final concentrations desired. 2.5 μL of each compound dilution are diluted further in a total of 1 mL DMEM+10% FBS+antibiotics (400× dilution). Medium containing 0.25% DMSO is also prepared for the 0 μM compound sample. At the 22 h time point, the medium is removed from the cells, and 100 μL of each compound dilution is added. The cells are incubated at 37° C. for 2-3 h.
During the compound pre-incubation period, the growth factors are diluted to the appropriate concentrations. Solutions of DMEM+10% FBS+antibiotics, containing either VEGF or bFGF at the following concentrations: 50, 10, 2, 0.4, 0.08, and 0 ng/mL are prepared. For the compound-treated cells, solutions of VEGF at 550 ng/mL or bFGF at 220 ng/mL for 50 ng/mL or 20 ng/mL final concentrations, respectively, are prepared since 10 μL of each will be added to the cells (110 μL final volume). At the appropriate time after adding the compounds, the growth factors are added. VEGF is added to one set of plates, while bFGF is added to another set of plates. For the growth factor control curves, the media on wells B4-G6 of plates 1 and 2 are replaced with media containing VEGF or bFGF at the varying concentrations (50-0 ng/mL). The cells are incubated at 37° C. for an additional 72 h.
At the completion of the 72 h incubation period, the medium is removed, and the cells are washed twice with PBS. After the second wash with PBS, the plates are tapped gently to remove excess PBS, and the cells are placed at −70° C. for at least 30 min. The cells are thawed and analyzed using the CyQuant fluorescent dye (Molecular Probes C-7026), following the manufacturer's recommendations. The plates are read on a Victor/Wallac 1420 workstation at 485 nm/530 nm (excitation/emission). Raw data are collected and analyzed using a 4-parameter fit equation in XLFit. IC50 values are then determined.

Assay [2] concerns the target T1, CYP 2D6 (Homo sapiens, UniProt P10635).
T1 construct: followed by 555.6 ml of 20 mg/mL HLM (BD Gentest); tissue BD Gentest; host or cells: human liver microsomes
The assay can be described thus: Human Liver Microsome CYP 2D6 Inhibition. In kind it is in vitro ADME. The settings on record: human liver microsomes, bufuralol substrate; read-out: inhibited CYP2D6 microsomes, IC50. The protocol: Determining the IC-50 for Human Liver Microsome CYP 2D6 Inhibition
Postassium Phosphate Buffer pH 7.4 (39.333 mL) is chilled in an ice bath and added to a 50 ml plastic tube. A 3.2 mM bufuralol solution is prepared. 111.1 ul of 3.2 mM bufuralol is added to the buffer followed by 555.6 ml of 20 mg/mL HLM (BD Gentest). The incubation mixture was gently inverted and equilibrated at 37° C. for 5 min. A stock inhibitor solution is prepared, such as in DMSO. Incubation mixture (801 ul) is added into 96-well, 1.2 mL plastic tubes. Inhibitor is added at various concentrations (e.g. 30 μM to […]). The tubes are sealed and mix by inverting 5 times gently. The incubation mixture containing inhibitor (270 μL) is added by aliquot into wells of a 1 mL, 96-well block (duplicate). The block is placed into a 37° C. water bath and equilibrated for 3 minutes. 10 mM NADPH (30 ml) is added to all samples. After 5 min, the reactions are stopped by adding 300 ml of Quench Solution [0.1% TFA in CH3CN]. 1′-OH-bufuralol-d9 (750 ng/mL 30 μL) is added, the block is gently vortexed then centrifuged at 3000 rpm for 10 min at 4° C. 50 μL of supernatant from all samples is added by aliquot into a shorter, 96-well block. The aliquoted supernatants are pooled with other assay(s) and HPLC Grade Water (50 μL) is added to all samples. After covering and shaking by vortex gently for 2 minutes, the solutions were analyzed by LC-MS (API 3000, 5% MeOH w/0.1% AcOH to 95% MeOH w/0.1% AcOH). 500 nM quinidine is used as a control.

In assay [3] the target is T2, CYP 3A4 (Homo sapiens, UniProt P08684).
T2 construct: followed by 222.2 ml of 20 mg/mL HLM (BD Gentest); tissue BD Gentest; host or cells: human liver microsomes
T2 sequence (P08684 whole entry): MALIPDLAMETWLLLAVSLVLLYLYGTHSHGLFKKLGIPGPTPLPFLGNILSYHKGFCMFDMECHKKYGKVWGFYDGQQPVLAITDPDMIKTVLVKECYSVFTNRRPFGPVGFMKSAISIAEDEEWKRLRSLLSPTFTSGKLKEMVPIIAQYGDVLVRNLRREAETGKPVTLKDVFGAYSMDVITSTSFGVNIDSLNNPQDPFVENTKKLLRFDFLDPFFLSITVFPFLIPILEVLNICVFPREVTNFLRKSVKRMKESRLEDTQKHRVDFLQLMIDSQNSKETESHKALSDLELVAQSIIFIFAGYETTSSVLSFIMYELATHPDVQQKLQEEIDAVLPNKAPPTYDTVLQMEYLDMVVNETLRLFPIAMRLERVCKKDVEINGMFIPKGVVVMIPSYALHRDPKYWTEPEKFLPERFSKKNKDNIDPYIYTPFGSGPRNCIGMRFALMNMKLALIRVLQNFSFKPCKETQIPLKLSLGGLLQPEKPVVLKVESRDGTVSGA
Description: Human Liver Microsome CYP 3A4 Inhibition. In kind it is in vitro ADME. The settings on record: human liver microsomes, midazolam substrate; read-out: inhibited CYP3A4 microsomes, IC50. How it is done: Determining the IC-50 for Human Liver Microsome CYP 3A4 Inhibition
Postassium Phosphate Buffer pH 7.4 (39.667 mL) is chilled in an ice bath and added to a 50 ml plastic tube. A 2 mM midazolam solution is prepared. 111.1 ul of 2 mM midazolam is added to the buffer followed by 222.2 ml of 20 mg/mL HLM (BD Gentest). The incubation mixture was gently inverted and equilibrated at 37° C. for 5 min. A stock inhibitor solution is prepared, such as in DMSO. Incubation mixture (801 ul) is added into 96-well, 1.2 mL plastic tubes. Inhibitor is added at various concentrations (e.g. 30 uM to 120 nM). The tubes are sealed and mix by inverting 5 times gently. The incubation mixture containing inhibitor (270 uL) is added by aliquot into wells of a 1 mL, 96-well block (duplicate). The block is placed into a 37° C. water bath and equilibrated for 3 min. 10 mM NADPH (30 ml) is added to all samples. After 5 minutes, the reactions are stopped by adding 300 ml of Quench Solution [0.1% TFA in CH3CN]. 1′-OH-Midazolam-d313C (2 mg/mL 30 uL) is added, the block is gently vortexed then centrifuged at 3000 rpm for 10 minutes at 4° C. 50 μL of supernatant from all samples is added by aliquot into a shorter, 96-well block. The aliquoted supernatants are pooled with other assay(s) and HPLC Grade Water (50 ul) is added to all samples. After covering and shaking by vortex gently for 2 minutes, the solutions were analyzed by LC-MS (API 3000,5% MeOH w/0.1% AcOH to 95% MeOH w/0.1% AcOH). 37 nM ketoconazole is used as a control.
A general note: Microsomes from liver hold many membrane-bound enzymes, among them those of drug oxidation.

T1 sequence (P10635 whole entry): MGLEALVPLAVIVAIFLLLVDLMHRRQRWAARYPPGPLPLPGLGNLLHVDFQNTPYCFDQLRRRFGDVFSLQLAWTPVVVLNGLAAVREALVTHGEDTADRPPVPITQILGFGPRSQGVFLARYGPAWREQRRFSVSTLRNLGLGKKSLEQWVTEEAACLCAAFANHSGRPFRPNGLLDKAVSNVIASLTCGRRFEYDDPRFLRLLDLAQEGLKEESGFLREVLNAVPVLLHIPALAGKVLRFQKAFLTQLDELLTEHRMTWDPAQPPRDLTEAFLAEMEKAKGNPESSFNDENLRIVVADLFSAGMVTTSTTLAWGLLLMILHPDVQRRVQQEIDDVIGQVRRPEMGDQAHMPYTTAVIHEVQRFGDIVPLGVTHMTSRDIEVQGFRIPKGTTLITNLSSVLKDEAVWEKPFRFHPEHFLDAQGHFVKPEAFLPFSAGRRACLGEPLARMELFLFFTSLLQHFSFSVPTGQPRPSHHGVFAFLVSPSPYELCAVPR

On to `CC1(C)CN(C(=O)CN)c2cc(NC(=O)c3cccnc3NCc3ccnc4[nH]ccc34)ccc21` [Example 21, N-(1-Glycyl-3,3-dimethyl-2,3-dihydro-1H-indol-6-yl)-2-[(1H-pyrrolo[2,3-b]pyridin-4-ylmethyl)amino]nicotinamide], for which the IC50 in assay [1] was less than 0.5 µM; in assay [2], more than 20 µM.

As to `CC(=O)N1CC(C)(C)c2ccc(NC(=O)c3cccnc3NCc3ccnc4c3CCN4)cc21` [Example 29, N-(1-Acetyl-3,3-dimethyl-2,3-dihydro-1H-indol-6-yl)-2-[(2,3-dihydro-1H-pyrrolo[2,3-b]pyridin-4-ylmethyl)amino]nicotinamide], the figures for the IC50 in assay [1] and in assay [2] were less than 0.5 µM and more than 20 µM, respectively.

Consider `CC1(C)CCNc2cc(NC(=O)c3cccnc3NCc3ccnc4c3CCN4)ccc21` [Example 31, 2-[(2,3-Dihydro-1H-pyrrolo[2,3-b]pyridin-4-ylmethyl)amino]-N-(4,4-dimethyl-1,2,3,4-tetrahydroquinolin-7-yl)nicotinamide], for which the IC50 is less than 0.5 µM in assay [1] and more than 20 µM in assay [2].

With `CC1(C)CNCc2cc(NC(=O)c3cccnc3NCc3c[nH]c4ncccc34)ccc21` [Example 38, N-(4,4-Dimethyl-1,2,3,4-tetrahydroisoquinolin-7-yl)-2-[(1H-pyrrolo[2,3-b]pyridin-3-ylmethyl)amino]nicotinamide], the IC50 in assay [1] was less than 0.5 µM; in assay [2], more than 20 µM.

As for `CC1(C)CCNc2cc(NC(=O)c3cccnc3NCc3c[nH]c4ncccc34)ccc21` [Example 40, N-(4,4-Dimethyl-1,2,3,4-tetrahydro-quinolin-7-yl)-2-[(1H-pyrrolo[2,3-b]pyridin-3-ylmethyl)-amino]-nicotinamide], the IC50 in assay [1] was less than 0.5 µM; in assay [2], more than 20 µM.

`CC(=O)N1CCC(C)(C)c2ccc(NC(=O)c3cccnc3NCc3ccnc4[nH]ccc34)cc21` [Example 52, N-(1-Acetyl-4,4-dimethyl-1,2,3,4-tetrahydro-quinolin-7-yl)-2-[(1H-pyrrolo[2,3-b]pyridin-4-ylmethyl)-amino]-nicotinamide]: the IC50 is less than 0.5 µM in assay [1] and more than 20 µM in assay [2].

Take `CC1(C)CN(S(C)(=O)=O)c2cc(NC(=O)c3cccnc3NCc3ccnc4[nH]ccc34)ccc21` [Example 61, N-(1-Methanesulfonyl-3,3-dimethyl-2,3-dihydro-1H-indol-6-yl)-2-[(1H-pyrrolo[2,3-b]pyridin-4-ylmethyl)-amino]-nicotinamide]: the results for the IC50 in assay [1] and in assay [2] were less than 0.5 µM and more than 20 µM, respectively.

As for `[2H]C1([2H])CC(C)(C)c2ccc(NC(=O)c3cccnc3NCc3ccnc4[nH]ccc34)cc2N1` [Example 69, N-(2,2-Dideutero-4,4-dimethyl-1,2,3,4-tetrahydro-quinolin-7-yl)-2-[(1H-pyrrolo[2,3-b]pyridin-4-ylmethyl)-amino]-nicotinamide], the results for the IC50 in assay [1] and in assay [2] were less than 0.5 µM and more than 20 µM, respectively.

As to `Cc1nc2cc(NC(=O)c3cccnc3NCc3ccnc4[nH]ncc34)ccc2s1` [Example 70, N-(2-Methyl-1,3-benzothiazol-5-yl)-2-((1H-pyrazolo[3,4-b]pyridin-4-ylmethyl)amino)-3-pyridinecarboxamide], the IC50 in assay [1] was less than 0.5 µM; in assay [2], more than 20 µM.

In the case of `O=C(Nc1ccc(C(F)(F)F)cc1)c1cc(F)cnc1NCc1ccnc2[nH]ccc12` [Example 78, 5-fluoro-2-((1H-pyrrolo[2,3-b]pyridin-4-ylmethyl)amino)-N-(4-(trifluoromethyl)phenyl)-3-pyridinecarboxamide], the IC50 in assay [3] was more than 20 µM.

Take `CC(=O)N1CC(C)(C)c2ccc(NC(=O)c3cc(F)cnc3NCc3ccnc4[nH]ccc34)cc21` [Example 80, N-(1-acetyl-3,3-dimethyl-2,3-dihydro-1H-indol-6-yl)-5-fluoro-2-((1H-pyrrolo[2,3-b]pyridin-4-ylmethyl)amino)-3-pyridinecarboxamide]: the results for the IC50 in assay [1] and in assay [2] were less than 0.5 µM and more than 20 µM, respectively.

`CC1(C)CC(=O)Nc2cc(NC(=O)c3cc(F)cnc3NCc3ccnc4[nH]ccc34)ccc21` [Example 81, N-(4,4-dimethyl-2-oxo-1,2,3,4-tetrahydro-7-quinolinyl)-5-fluoro-2-((1H-pyrrolo[2,3-b]pyridin-4-ylmethyl)amino)-3-pyridinecarboxamide]: the values for the IC50 in assay [1] and in assay [2] were less than 0.5 µM and more than 20 µM, respectively.

`CC1(C)CCNc2cc(NC(=O)c3cc(F)cnc3NCc3ccnc4[nH]ccc34)ccc21` [Example 82, N-(4,4-dimethyl-1,2,3,4-tetrahydro-7-quinolinyl)-5-fluoro-2-((1H-pyrrolo[2,3-b]pyridin-4-ylmethyl)amino)-3-pyridinecarboxamide]: the IC50 in assay [1] was less than 0.5 µM; in assay [2], more than 20 µM.

With `CC(C)Oc1ccc(NC(=O)c2cc(F)cnc2NCc2ccnc3[nH]ccc23)cc1` [Example 95, 5-fluoro-N-(4-((1-methylethyl)oxy)phenyl)-2-((1H-pyrrolo[2,3-b]pyridin-4-ylmethyl)amino)-3-pyridinecarboxamide], the IC50 in assay [3] is more than 20 µM.

On to `Cc1nc2cc(NC(=O)c3cc(F)cnc3NCc3ccnc4[nH]ncc34)ccc2s1` [Example 116, 5-fluoro-N-(2-methyl-1,3-benzothiazol-5-yl)-2-((1H-pyrazolo[3,4-b]pyridin-4-ylmethyl)amino)-3-pyridinecarboxamide], for which the results for the IC50 in assay [1] and in assay [2] were less than 0.5 µM and more than 20 µM, respectively.

The record behind these values is US8247556B2, “Method for preparing 6-substituted-7-aza-indoles” (Amgen Inc., priority 2005, dated 2012).
